The values below come from ChEMBL document CHEMBL3507680, “University of Dundee, Gates Library screen for HepG2 cell viability”.

SMILES strings stand for the structures.

The nature of this series: Human HepG2 cell viability assay in 384 well format. In kind it is toxicity, cell-based. Set-up: dose 125 nL, time 70.5 hour; cytotoxicity at 70.5 h: concentration not given beside the values. Conditions: HepG2 cells, read-out: Inhibition.

In the case of `Nc1cc(C(=O)N2CCC3(CC2)Nc2ccccc2NC3=O)ccn1`, the cytotoxicity at 70.5 h is 19.6%.

In the case of `CCOc1ncccc1Cn1cc(-c2ccc(CO)o2)nn1`, the cytotoxicity at 70.5 h is -15.3%.

As for `COc1ccc(C(=O)NCC2CCCN(C3CCOCC3)C2)c(O)c1` (stereo not drawn), the cytotoxicity at 70.5 h amounted to 23.3%.

Consider `COc1cccc(CCC2CCCN(Cc3ncc[nH]3)C2)c1` (stereo not drawn), for which the cytotoxicity at 70.5 h amounted to 29.4%.

Take `Cc1[nH]c2c(F)cccc2c1CC(=O)N1CCC(NS(C)(=O)=O)CC1`: the cytotoxicity at 70.5 h was -7.49%.

For `CN1CC[C@H]2CN(C(=O)c3ccc4sc5c(c4c3)CCNC5=O)C[C@H]21`, the cytotoxicity at 70.5 h was -1.19%.

Consider `CCOc1ccccc1OCCN(C)Cc1nccn1C`, for which the cytotoxicity at 70.5 h was -5.37%.

As to `CC(=O)N1CCC(C(=O)NC2CC(C)(C)Oc3cc(C)ccc32)CC1` (stereo not drawn), the cytotoxicity at 70.5 h is 12.8%.

Regarding `COCCc1noc(CNC(=O)C2CC(=O)N(C(C)(C)C)C2)n1` (stereo not drawn), the cytotoxicity at 70.5 h was -7.37%.

Regarding `Cc1cc(C2CCC2)nc(N(C)CCc2ccccn2)n1`, the cytotoxicity at 70.5 h is -5.51%.

`O=C1OCCN1CC(=O)N1C[C@H]2CC[C@@H]1CN(Cc1cscn1)C2`: the cytotoxicity at 70.5 h was 27.8%.

Take `Cc1cc2n(n1)CCN(c1nc(N)nc3c1CCNCC3)C2`: the cytotoxicity at 70.5 h was -13.6%.

For the compound `Cc1ccnc(NCCNC(=O)CCNC(=O)c2ccccc2F)c1`, the cytotoxicity at 70.5 h stood at 1.01%.

`CCCN(CCc1ccccc1)c1ncnc2oc(C)nc12`: the cytotoxicity at 70.5 h was -2.57%.

For `Cc1cccnc1CN1CCN(C(=O)CCn2ccccc2=O)CC1`, the cytotoxicity at 70.5 h was 0.0273%.

Turning to `CNc1nc(C(=O)N2CCCN(c3ccnc(C)c3)CC2)cs1`, the cytotoxicity at 70.5 h was -5.86%.

Regarding `COCCN(Cc1sccc1C)c1nc(C)nc2sccc12`, the cytotoxicity at 70.5 h was -3.07%.

For the compound `COc1nc2c(cc1C(=O)N(C)Cc1noc3c1CCCC3)CCC2`, the cytotoxicity at 70.5 h is -0.83%.

`CC(C1CCN(Cc2cnn(C)c2C2CC2)CC1)N1CCN(C)CC1` (stereo not drawn): the cytotoxicity at 70.5 h is -3.33%.

With `CNc1cc(C)nc(N2CCN(Cc3ccccc3)CC(O)C2)n1` (stereo not drawn), the cytotoxicity at 70.5 h is -0.369%.

Turning to `c1nc2c(c(NC3COC4(CCCC4)C3)n1)CCNCC2` (stereo not drawn), the cytotoxicity at 70.5 h was -5.17%.

With `CC(C)(N)C(=O)N1CCCC(C(=O)c2ccc(C(C)(C)C)cc2)C1` (stereo not drawn), the cytotoxicity at 70.5 h is -3.3%.

Consider `Cc1ccc(-c2ncc(C(=O)N3CCCN4CCC[C@H]4C3)c(O)n2)cc1`, for which the cytotoxicity at 70.5 h was found to be 5.02%.

As to `COc1ccc(-c2cccc(-c3ccn(CCN(C)C)n3)c2)nn1`, the cytotoxicity at 70.5 h was -3.58%.

For `N[C@H]1CC[C@@H](n2cc(C(=O)NC3COc4ccccc43)nn2)CC1` (stereo partly drawn), the cytotoxicity at 70.5 h is -0.524%.

For `c1cncc(Cc2nnc3n2CCN(CC2CCOC2)CC3)c1` (stereo not drawn), the cytotoxicity at 70.5 h is -10.7%.

Regarding `COCCN(C)C[C@H]1C[C@@H](CO)CN(C(=O)c2ccn(C)c(=O)c2)C1`, the cytotoxicity at 70.5 h was -8.04%.

As to `c1cncc(OCc2nc(C3CC3)nn2-c2ccc3c(c2)OCCO3)c1`, the cytotoxicity at 70.5 h was found to be 14.2%.

In the case of `C[C@@H]1CN(C(=O)CCc2nncn2C)CC[C@@]1(O)C1CCC1`, the cytotoxicity at 70.5 h is -5.47%.

On to `N#Cc1ccnc(NCc2cc3n(n2)CCCN(C(=O)C2CCC2)C3)c1`, for which the cytotoxicity at 70.5 h was found to be 1.71%.

On to `CCOCCC(=O)N1C[C@H]2CC[C@@H]1CN(c1ncccn1)C2`, for which the cytotoxicity at 70.5 h is -5.84%.

Regarding `CC(C)N1CCN(C(=O)c2csc3nc(-c4ccc(Cl)cc4)cn23)CC1`, the cytotoxicity at 70.5 h was -16.3%.

Turning to `CCN(Cc1ccncc1)Cc1cn(-c2ccccc2)nn1`, the cytotoxicity at 70.5 h was -10.2%.

Take `Cc1ccc(Cl)c(CN2CCC(c3nccn3C(C)C)CC2)c1F`: the cytotoxicity at 70.5 h was -1.48%.

Take `Cc1ccccc1N1CCCN(CC2(O)CCCNC2)CC1` (stereo not drawn): the cytotoxicity at 70.5 h amounted to 20.3%.

For the compound `OCC1COCCN(c2ncccc2C(F)(F)F)C1` (stereo not drawn), the cytotoxicity at 70.5 h amounted to 3.25%.

`COc1cccc2c1OCC(C(=O)N1CCC(N3CCSCC3)CC1)C2` (stereo not drawn): the cytotoxicity at 70.5 h worked out at 4.8%.

Take `O=C(c1ccc2c(c1)CCO2)N1CCN(c2ccc(Cl)cn2)CC1`: the cytotoxicity at 70.5 h was -0.811%.

On to `Cc1cc(-c2cccc(-c3ccn(CCCO)n3)c2)nc(N(C)C)n1`, for which the cytotoxicity at 70.5 h was -5.08%.

For `CN1CCN([C@H]2CCN(C(=O)c3cc(Cl)cn3C)C[C@H]2CCCO)CC1`, the cytotoxicity at 70.5 h was -14.3%.

On to `Cc1cccc(-c2nccn2C2CC(=O)N(C(C)C)C2)n1` (stereo not drawn), for which the cytotoxicity at 70.5 h was 0.181%.

For the compound `CCN1CCCC1CN(Cc1ccoc1)CC1CCN(CCOC)CC1` (stereo not drawn), the cytotoxicity at 70.5 h is -3.24%.

In the case of `CN(CCO)Cc1nnc(C2CCN(C(=O)c3ccccc3)CC2)n1C`, the cytotoxicity at 70.5 h worked out at 0.129%.

For `Cc1cccc(CN2CCN(C(=O)[C@@H]3CSCN3C)CC2)c1`, the cytotoxicity at 70.5 h was -13.3%.

For `CC(C)CCC(=O)N1CCCC2(CCN(Cc3ccccc3C#N)C2)C1` (stereo not drawn), the cytotoxicity at 70.5 h is -5.13%.

With `O=S1(=O)COCCN1Cc1ccc(F)cc1Cl`, the cytotoxicity at 70.5 h is -9.29%.

Take `Cc1cccc(C)c1-c1cc(NCCO)nc2[nH]ccc12`: the cytotoxicity at 70.5 h is -11.1%.

In the case of `O=C(N[C@@H]1CCN(c2nc3ccccc3o2)C[C@H]1O)c1cnccn1`, the cytotoxicity at 70.5 h is -9.1%.

For the compound `Cc1nnc(CN2CCN(C)C3(CCNC(=O)CC3)C2)s1` (stereo not drawn), the cytotoxicity at 70.5 h was found to be 2.04%.

As to `Cc1cc(=O)[nH]c(NCCNC(=O)CN2CCCCCC2)n1`, the cytotoxicity at 70.5 h was 15.9%.

Consider `O=C(NC1CC1)C1CN(c2nc3ccccc3s2)CCN1` (stereo not drawn), for which the cytotoxicity at 70.5 h is -7.94%.

For the compound `CC(C)CCn1c(=O)n(CCn2cccc2)c2cc(C(=O)O)cnc21`, the cytotoxicity at 70.5 h is -7.02%.

As to `COCc1cc(N(C)CCc2c(C)n[nH]c2C)ncn1`, the cytotoxicity at 70.5 h came to 5.69%.

Consider `COc1ccnc(CNc2nc(C)nc(C)c2C)c1`, for which the cytotoxicity at 70.5 h turned out to be 3%.

Consider `CSCC[C@H](N)C(=O)N1CC(Oc2ccccc2C)C1`, for which the cytotoxicity at 70.5 h was -3.44%.

Regarding `CCN1CC(C(=O)NCCn2cccc2)CC1=O` (stereo not drawn), the cytotoxicity at 70.5 h is -4.38%.

In the case of `Cc1cnn(C(C)C2CC2)c1NC(=O)c1ccc(Cn2cnnn2)cc1` (stereo not drawn), the cytotoxicity at 70.5 h is -10.2%.

For `O=c1cnc2ccccc2n1CCCn1ccnc1`, the cytotoxicity at 70.5 h is -16.2%.

For `O=C(COc1cccnc1)NCc1nncn1C1CCCCC1`, the cytotoxicity at 70.5 h was -5.77%.

On to `COCCn1ccnc1C1CCCN(C(=O)c2ccncc2F)C1` (stereo not drawn), for which the cytotoxicity at 70.5 h stood at 11%.

Regarding `Cc1cnn(C2(C(=O)O)CCN(c3ccncc3F)CC2)c1`, the cytotoxicity at 70.5 h is -5.87%.

For `CCc1ccc2occ(CC(=O)N3CCC4(CCCN(C)C4=O)C3)c2c1` (stereo not drawn), the cytotoxicity at 70.5 h was -9.34%.

With `Clc1cccnc1N1CCC(C2CCN(Cc3cccnc3)CC2)C1` (stereo not drawn), the cytotoxicity at 70.5 h turned out to be 25.7%.

In the case of `Cc1nn(C)c2nc(N(CCN(C)C)C3CCCC3)sc12`, the cytotoxicity at 70.5 h is 2.63%.

Regarding `O=C1CC(NCc2cccc(O)c2)CN1CCc1cccc(Cl)c1` (stereo not drawn), the cytotoxicity at 70.5 h worked out at 14.8%.

`O=C(CCc1ccco1)N1CCC(Oc2ccccc2)(C(=O)O)CC1`: the cytotoxicity at 70.5 h amounted to 2.91%.

For `CCC(Nc1cccc(OC)c1)C(=O)NCc1nc(C)cc(=O)[nH]1` (stereo not drawn), the cytotoxicity at 70.5 h was -5.76%.

Turning to `CCN(CC)Cc1cc(C(=O)N2CCC3(CCN(C)CC3)C2)c(C)o1`, the cytotoxicity at 70.5 h is -14.5%.

Turning to `Cc1[nH]ccc1C(=O)N[C@H]1CN(CCO)C[C@@H]1C1CC1`, the cytotoxicity at 70.5 h was -6.42%.

On to `CCc1cccc(OC2CN(C(=O)[C@@H](N)CCSC)C2)c1`, for which the cytotoxicity at 70.5 h is -1.91%.

Turning to `CC(C)c1cc(=O)[nH]c(-c2ccccc2CN2CCCC2C)n1` (stereo not drawn), the cytotoxicity at 70.5 h was -19.9%.

Regarding `Cc1ncc(CN2CCC(n3cc(-c4ccc(F)cc4)nn3)CC2)cn1`, the cytotoxicity at 70.5 h was -2.17%.

Regarding `OCCc1ccccc1-n1ccnc1-c1cn(C2CCNCC2)nn1`, the cytotoxicity at 70.5 h stood at 27.2%.

As to `Cc1nc(N)cc(N2CCCC(COc3cccc(F)c3)C2)n1` (stereo not drawn), the cytotoxicity at 70.5 h is -16.1%.

With `Cn1ccc2c(-c3ccc(NCCO)nn3)ccnc21`, the cytotoxicity at 70.5 h is -9.8%.

`CCOc1ccc(CC(=O)N2C[C@H](C3CC3)[C@@H](N)C2)cc1`: the cytotoxicity at 70.5 h came out at 37.4%.

As for `O=C(CCn1cc(Cl)cn1)N1CCC2(CC1)[C@H](O)C[C@@H]2OCCO`, the cytotoxicity at 70.5 h is -1.08%.

`CCC(CC)Cn1ncc(N2CCOCC2)cc1=O`: the cytotoxicity at 70.5 h was -1.42%.

Take `O=C(C1CC1)N1CCC(C(=O)N2CCC(c3ccc(F)cc3)C2)CC1` (stereo not drawn): the cytotoxicity at 70.5 h worked out at 8.64%.

For the compound `O=C(NCc1ccc2c(c1)CCCO2)c1ccc(C2CCNC2)cc1` (stereo not drawn), the cytotoxicity at 70.5 h is -18%.

Consider `Cc1ccc(O)c(C(=O)N2CCC3(CCCNC3)C2)c1` (stereo not drawn), for which the cytotoxicity at 70.5 h was -7.79%.

`Cn1cccc1-c1cc(C(=O)N2CCCC2c2ccc(C(N)=O)s2)[nH]n1` (stereo not drawn): the cytotoxicity at 70.5 h was -2.9%.

For the compound `Cc1cc2ccccc2n1CCC(=O)NCc1ncc[nH]1`, the cytotoxicity at 70.5 h was -1.07%.

In the case of `CN(C)CC1(O)CCN(S(=O)(=O)c2ccc(F)cc2)C1` (stereo not drawn), the cytotoxicity at 70.5 h is 30.9%.

Take `CN(C)CC1(O)CCN(S(=O)(=O)c2ccc(F)c(F)c2)C1` (stereo not drawn): the cytotoxicity at 70.5 h turned out to be 32.6%.

Regarding `CCC(=O)NCCc1cc(N2CCN(C(C)=O)CC2)nc(C2CC2)n1`, the cytotoxicity at 70.5 h is -1.36%.

In the case of `CNc1cc(CCNC(=O)c2cccnc2)nc(-c2ccncc2)n1`, the cytotoxicity at 70.5 h is -7.53%.

Take `Cc1cc(C2CCCN(C(=O)c3cnn(C)c3)C2)ccn1` (stereo not drawn): the cytotoxicity at 70.5 h was -8.77%.

On to `CNC(=O)c1ccc(C2CN(C(=O)c3cncs3)CCO2)nc1` (stereo not drawn), for which the cytotoxicity at 70.5 h was -3.2%.

Regarding `Cc1cc(C2CCCN(C(=O)c3cnccn3)C2)ccn1` (stereo not drawn), the cytotoxicity at 70.5 h is -0.249%.

Take `Cc1nc(C(=O)N2CCCC(c3cccc(-n4ccnc4)n3)C2)co1` (stereo not drawn): the cytotoxicity at 70.5 h was 4.94%.

`CCOCC(=O)N1C[C@@H](O)[C@H](N(C)Cc2ccc(OC)cc2)C1`: the cytotoxicity at 70.5 h was -13.7%.

Turning to `O=C(Cn1c(=O)n(Cc2ccco2)c2ncccc21)Nc1ccccn1`, the cytotoxicity at 70.5 h is -4.41%.

For `Cn1ccc(C(=O)N2CCCC(Cc3cccc4ncccc34)C2)n1` (stereo not drawn), the cytotoxicity at 70.5 h came to 35.2%.

On to `CN1CC[C@H](c2ccccc2)[C@@H]2[C@H]1CCCCN2C(=O)c1cnccn1`, for which the cytotoxicity at 70.5 h is -8.44%.

For the compound `Cc1c(C2CCCN(C(=O)C3CC3)C2)n2c(nc1=O)CCC2` (stereo not drawn), the cytotoxicity at 70.5 h was -3.86%.

With `Cc1ccc(S(=O)(=O)N2CCc3nc(C4CCNCC4)ncc3C2)cc1`, the cytotoxicity at 70.5 h is -8.7%.

Turning to `CCn1ncc(-c2nc3c[nH]n(CC)c-3n2)c1C`, the cytotoxicity at 70.5 h was found to be 0.803%.
